In this test the target is T1, PI3K-α kinase (p110α/p85α) (Homo sapiens, UniProt P42336).
T1 construct: purchased Invitrogen PV4788
T1 sequence (P42336 whole entry): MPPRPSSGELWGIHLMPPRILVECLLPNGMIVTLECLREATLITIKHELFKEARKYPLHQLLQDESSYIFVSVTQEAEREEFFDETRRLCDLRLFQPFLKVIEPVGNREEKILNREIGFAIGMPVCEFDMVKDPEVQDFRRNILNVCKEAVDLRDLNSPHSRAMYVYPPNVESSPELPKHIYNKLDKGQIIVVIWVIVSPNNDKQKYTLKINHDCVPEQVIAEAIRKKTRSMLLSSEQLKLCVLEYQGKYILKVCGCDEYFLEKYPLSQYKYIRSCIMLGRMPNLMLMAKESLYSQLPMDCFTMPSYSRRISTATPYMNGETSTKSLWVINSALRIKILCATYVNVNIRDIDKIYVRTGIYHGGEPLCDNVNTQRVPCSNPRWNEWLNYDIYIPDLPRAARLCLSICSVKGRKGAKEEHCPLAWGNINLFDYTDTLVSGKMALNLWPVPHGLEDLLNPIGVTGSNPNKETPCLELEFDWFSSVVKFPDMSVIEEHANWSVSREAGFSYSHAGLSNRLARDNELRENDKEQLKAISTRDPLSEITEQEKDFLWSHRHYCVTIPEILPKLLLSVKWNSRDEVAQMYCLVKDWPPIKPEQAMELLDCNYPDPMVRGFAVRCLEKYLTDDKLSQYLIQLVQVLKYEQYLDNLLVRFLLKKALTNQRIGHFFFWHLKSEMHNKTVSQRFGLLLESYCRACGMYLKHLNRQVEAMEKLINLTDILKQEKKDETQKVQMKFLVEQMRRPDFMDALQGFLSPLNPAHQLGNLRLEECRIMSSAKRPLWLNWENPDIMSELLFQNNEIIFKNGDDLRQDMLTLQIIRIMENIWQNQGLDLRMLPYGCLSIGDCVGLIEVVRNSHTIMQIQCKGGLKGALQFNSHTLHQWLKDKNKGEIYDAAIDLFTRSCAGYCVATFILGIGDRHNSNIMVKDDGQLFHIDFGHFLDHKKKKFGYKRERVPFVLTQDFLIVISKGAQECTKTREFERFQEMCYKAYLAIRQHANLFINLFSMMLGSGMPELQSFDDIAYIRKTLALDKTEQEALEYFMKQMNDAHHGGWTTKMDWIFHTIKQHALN
T1 sequence (P27986 whole entry partner): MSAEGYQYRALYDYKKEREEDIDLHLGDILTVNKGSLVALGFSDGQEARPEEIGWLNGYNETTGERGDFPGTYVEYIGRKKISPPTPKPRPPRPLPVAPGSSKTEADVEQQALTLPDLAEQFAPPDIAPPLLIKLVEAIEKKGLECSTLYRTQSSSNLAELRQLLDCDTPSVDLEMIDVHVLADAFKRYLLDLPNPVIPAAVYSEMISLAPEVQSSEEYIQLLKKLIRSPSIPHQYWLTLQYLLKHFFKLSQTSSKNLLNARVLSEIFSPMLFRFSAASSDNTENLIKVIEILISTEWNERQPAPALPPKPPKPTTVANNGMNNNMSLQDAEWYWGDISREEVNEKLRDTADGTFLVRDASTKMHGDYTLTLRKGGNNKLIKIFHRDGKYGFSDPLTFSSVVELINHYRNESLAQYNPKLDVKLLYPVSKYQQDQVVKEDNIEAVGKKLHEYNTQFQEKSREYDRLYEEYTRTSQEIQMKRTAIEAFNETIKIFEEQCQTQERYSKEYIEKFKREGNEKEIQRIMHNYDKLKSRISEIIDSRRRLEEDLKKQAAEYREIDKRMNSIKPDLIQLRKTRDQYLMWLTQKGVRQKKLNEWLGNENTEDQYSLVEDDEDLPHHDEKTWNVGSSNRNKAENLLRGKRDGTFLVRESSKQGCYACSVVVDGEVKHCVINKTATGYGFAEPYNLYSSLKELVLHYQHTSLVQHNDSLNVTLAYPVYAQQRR
The test can be described thus: Determination of PI3K kinase activity (ADP Transcreener, fluorescence polarization). The conditions noted are these: Table 2; ATP 10 μM; read-out: PI3K-α/nM (IC50 of inhibitory activity against PI3K-α kinase). In kind it is biochemical. As for the experimental part:
The inhibition of PI3K kinase activity by the compound to be tested was determined by the following method. The working concentration of each component in the 25 μL enzyme reaction system was: p110α/p85α 3 ng (or p110β/p85α 60 ng, or p110δ/p85α 90 ng, or p110γ 100 ng), ATP 10 μM, PIP2: PS (Invitrogen PV5100) 30 μM and the DMSO concentration was 2% after addition of the compound to be tested.
At the time of the test, the compound to be tested was dissolved in dimethylsulfoxide (DMSO) according to the desired concentration of the experiment. The compound to be tested was gradiently diluted 3 times (0.00046-1 μM, 8 concentration points) with 10% DMSO. 5 μL of the compound to be tested was added to each well of a 96-well plate (Greiner 675076) in duplicate. […] 10 μL of ATP/PIP2: PS and 10 μL of the PI3K enzyme working solution were added to each well in a 96-well plate. The plate was shaken and mixed uniformly, and then incubated at 25° C. for 1 hour. At the same time, ADP and ATP (0.01 μM, 0.02 μM, 0.04 μM, 0.06 μM, 0.08 μM[…], 0.1 μM, 0.25 μM, 0.5 μM, 1 μM, 2 μM, 5 μM, 10 μM, 12 concentration points) were diluted with buffer to set the standard curve. After completion of the enzyme reaction, 25 μL of ADP assay solution (1% 100×ADP tracer, 0.79% ADP antibody and 10% 10× reaction stop solution) was added and incubated at 25° C. for 1 hour. Fluorescence polarization value [mP] of each well was measured with a Perkin Elmer Victor X5 Fluorescent Microplate. The ADP concentration [ADP] was calculated from the ADP/ATP standard curve and the IC50 values were calculated using the XLFit software.
In general terms: In fluorescence polarisation assays a small probe gives low polarisation when free and higher when bound to something large.
For the compound `CC(C)(c1cc(-c2cnc(N)cc2C(F)(F)F)nc(N2CCOCC2)n1)S(=O)(=O)c1ccc(F)cc1` [Compound S-69], the IC50 was 59 nM. Then `CS(=O)(=O)NC1(c2cc(-c3cnc(N)cc3Cl)nc(N3CCOCC3)n2)CC1` [Compound S-90], with 75 nM. Then `CNC1(c2cc(-c3cnc(N)cc3C(F)(F)F)nc(N3CCOC[C@@H]3C)n2)CCC1` [Compound S-27, (S)-5-(6-(1-(methylamino)cyclobutyl)-2-(3-methylmorpholino)pyrimidin-4-yl)-4-(trifluoromethyl)pyridin-2-amine], with 285 nM; and `CS(=O)(=O)C1(c2cc(-c3ccc(N)cc3C(F)(F)F)nc(N3CCOCC3)n2)CC1` [Comparative compound 3, 4-(6-(1-(methylsulfonyl)cyclopropyl)-2-morpholinopyrimidin-4-yl)-3-(trifluoromethyl)aniline, reference compound], with > 1000 nM. Then `Cc1cnc(C2(c3cc(-c4cnc(N)cc4C(F)(F)F)nc(N4CCOCC4)n3)CC2)o1` [Compound S-61, 5-(6-(1-(5-methyloxazol-2-yl)cyclopropyl)-2-morpholinopyrimidin-4-yl)-4-(trifluoromethyl)pyridin-2-amine], with 195 nM. On to `CC(C)(c1cc(-c2cnc(N)cc2C(F)(F)F)nc(N2CCOCC2)n1)S(=O)(=O)c1cccc(F)c1` [Compound S-60], for which the IC50 stood at 35 nM. With `CS(=O)(=O)Cc1cc(-c2cnc(N)cc2C(F)(F)F)nc(N2CCOCC2)n1` [Compound S-62, 5-(6-(methylsulfonylmethyl)-2-morpholinopyrimidin-4-yl)-4-(trifluoromethyl)pyridin-2-amine], the IC50 came to 189 nM. Regarding `CC(C)(c1cc(-c2cnc(N)cc2C(F)(F)F)nc(N2CCOCC2)n1)S(=O)(=O)c1ccc(F)c(F)c1` [Compound S-79], the IC50 came to 55 nM. Then `Nc1cc(C(F)(F)F)c(-c2cc(C3(S(=O)(=O)c4ccc(F)c(F)c4)CC3)nc(N3CCOCC3)n2)cn1` [Compound S-77], with 62 nM.

Turning to `CC(C)(c1cc(-c2cnc(N)cc2Cl)nc(N2CCOCC2)n1)S(=O)(=O)c1ccccc1` [Compound S-55, 4-chloro-5-(2-morpholinyl-6-(2-(phenylsulfonyl)propan-2-yl)pyrimidin-4-yl)pyridin-2-amine], the IC50 was 40 nM.
